This note sets out measurements from patent US10092575B2, “Substituted thiophene- and furan-fused azolopyrimidine-5-(6H)-one compounds” (DART NEUROSCIENCE (CAYMAN) LTD., priority 2012, dated 2018).

Each structure is given as a SMILES string.

In this experiment the target is human PDE1b enzyme (Homo sapiens (Human), UniProt Q01064). The experiment is described as follows: PDE1b inhibitory assay (IMAP TR-FRET). The following applies: for PDE1b (pEC50): negative log of half-maximal molar inhibitory concentration, 200 nM FAM-cAMP, reported as ranges. For orientation: TR-FRET usually uses a lanthanide donor and a delayed reading to cut background.

Experimental: PDE1b inhibition was determined by an IMAP TR-FRET assay. The IMAP TR-FRET PDE assay was optimized for concentration of enzyme, Calmodulin, cAMP or cGMP substrate, DMSO tolerance, and incubation time.
After a brief centrifugation, the plates were incubated for 30 minutes at room temperature. The assay was terminated by adding 5 μL IMAP binding reagent/Tb complex (Molecular Devices, Sunnyvale, Calif.) to each well.
Plates were incubated 1 hour at room temperature and read on a Viewlux multimode plate reader (Perkin Elmer). The instrument was set to excite using the DUG11 filter and measure using 490/10 nm and 520/10 nm filters. Ratios of acceptor and donor were then calculated.
For EC50 calculations, the values of % efficacy versus a series of compound concentrations were then plotted using non-linear regression analysis of sigmoidal dose-response curves generated with the equation Y=B+(T−B)/1+10((Log EC50−X)×Hill Slope), where Y=percent activity, B=minimum percent efficacy, T=maximum percent efficacy, X=logarithm of compound and Hill Slope=slope factor or Hill coefficient. The EC50 value was determined by the concentration causing a half-maximal percent efficacy.

On to `O=c1n(Cc2ccccc2Cl)c2sccc2c2ncnn12` [Example 1, 6-(2-Chlorobenzyl)thieno[3,2-e][1,2,4]triazolo[1,5-c]pyrimidin-5(6H)-one], for which the EC50 – broadly, the concentration giving half of the maximal effect – lay in the range of 1000 to 10000 nM. The molecule `O=c1n(Cc2cccc(Cl)c2)c2sccc2c2ncnn12` [Example 2, 6-(3-Chlorobenzyl)thieno[3,2-e][1,2,4]triazolo[1,5-c]pyrimidin-5(6H)-one] displayed an EC50 of 1000 to 10000 nM. For `Cc1csc2c1c1ncnn1c(=O)n2Cc1ccc(Cl)cc1` [Example 3, 6-(4-Chlorobenzyl)-9-methylthieno[3,2-e][1,2,4]triazolo[1,5-c]pyrimidin-5(6H)-one], the EC50 fell in the range of 100 to 1000 nM. In the case of `O=c1n(Cc2ccc(-c3ccccc3)cc2)c2sccc2c2ncnn12` [Example 4, 6-([1,1′-Biphenyl]-4-ylmethyl)thieno[3,2-e][1,2,4]triazolo[1,5-c]pyrimidin-5(6H)-one], the “PDE1b (pEC50)” value is given as less than 5.

As to `O=c1n(Cc2ccc(Cl)cc2)c2sccc2c2ncnn12` [Example 5, 6-(4-Chlorobenzyl)thieno[3,2-e][1,2,4]triazolo[1,5-c]pyrimidin-5(6H)-one], the 50% effective concentration (EC50) was in the range of 100 to 1000 nM. In turn, `Cc1csc2c1c1ncnn1c(=O)n2Cc1ccccc1` [Example 6, 6-Benzyl-9-methylthieno[3,2-e][1,2,4]triazolo[1,5-c]pyrimidin-5(6H)-one] had an EC50 of 100 to 1000 nM. For `Cc1csc2c1c1ncnn1c(=O)n2Cc1ccc(-c2ccccc2)cc1` [Example 7, 6-([1,1′-Biphenyl]-4-ylmethyl)-9-methylthieno[3,2-e][1,2,4]triazolo[1,5-c]pyrimidin-5(6H)-one], the “PDE1b (pEC50)” value is given as less than 5.

For the molecule `O=c1n(Cc2ccccc2Cl)c2sc(Cc3ccccc3)cc2c2ncnn12` [Example 8, 8-benzyl-6-(2-Chlorobenzyl)thieno[3,2-e][1,2,4]triazolo[1,5-c]pyrimidin-5(6H)-one], the EC50 fell in the range of 100 to 1000 nM. `O=c1n(Cc2cccc(Cl)c2)c2sc(Cc3ccccc3)cc2c2ncnn12` [Example 9, 8-Benzyl-6-(3-chlorobenzyl)thieno[3,2-e][1,2,4]triazolo[1,5-c]pyrimidin-5(6H)-one] yielded an EC50 of 100 to 1000 nM. `Cc1csc2c1c1ncnn1c(=O)n2Cc1ccccc1Cl` [Example 10, 6-(2-Chlorobenzyl)-9-methylthieno[3,2-e][1,2,4]triazolo[1,5-c]pyrimidin-5(6H)-one]: the EC50 fell in the range of 1000 to 10000 nM. Take `Cc1csc2c1c1ncnn1c(=O)n2Cc1cccc(Cl)c1` [Example 11, 6-(3-Chlorobenzyl)-9-methylthieno[3,2-e][1,2,4]triazolo[1,5-c]pyrimidin-5(6H)-one]: the EC50 fell in the range of 100 to 1000 nM. The same measure, in the same setting: the same measure for `Cc1cc2c(s1)n(Cc1ccccc1)c(=O)n1ncnc21` [Example 12, 6-Benzyl-8-methylthieno[3,2-e][1,2,4]triazolo[1,5-c]pyrimidin-5(6H)-one]: 1000 to 10000 nM; for `Cc1cc2c(s1)n(Cc1ccccc1Cl)c(=O)n1ncnc21` [Example 13, 6-(2-Chlorobenzyl)-8-methylthieno[3,2-e][1,2,4]triazolo[1,5-c]pyrimidin-5(6H)-one]: 1000 to 10000 nM. Consider `Cc1cc2c(s1)n(Cc1ccc(-c3ccccc3)cc1)c(=O)n1ncnc21` [Example 14, 6-([1,1′-Biphenyl]-4-ylmethyl)-8-methylthieno[3,2-e][1,2,4]triazolo[1,5-c]pyrimidin-5(6H)-one], for which the “PDE1b (pEC50)” value is less than 5. Turning to `Cc1cc2c(s1)n(Cc1ccc(Cl)cc1)c(=O)n1ncnc21` [Example 15, 6-(4-Chlorobenzyl)-8-methylthieno[3,2-e][1,2,4]triazolo[1,5-c]pyrimidin-5(6H)-one], the EC50 is 100 to 1000 nM. Molecule `Cc1cc2c(s1)n(Cc1cccc(Cl)c1)c(=O)n1ncnc21` [Example 16, 6-(3-Chlorobenzyl)-8-methylthieno[3,2-e][1,2,4]triazolo[1,5-c]pyrimidin-5(6H)-one] yielded a 50% effective concentration (EC50) of 1000 to 10000 nM. `O=c1n(Cc2ccccc2)c2sc(Cc3ccccc3)cc2c2ncnn12` [Example 17, 6,8-Dibenzylthieno[3,2-e][1,2,4]triazolo[1,5-c]pyrimidin-5(6H)-one] gave an EC50 of 100 to 1000 nM. For `O=c1n(Cc2ccc(-c3ccccc3)cc2)c2sc(Cc3ccccc3)cc2c2ncnn12` [Example 18, 6-([1,1′-Biphenyl]-4-ylmethyl)-8-benzylthieno[3,2-e][1,2,4]triazolo[1,5-c]pyrimidin-5(6H)-one], the EC50 is 1000 to 10000 nM. Turning to `CC(C)CCc1cc2c(s1)n(Cc1ccccc1Cl)c(=O)n1ncnc21` [Example 19, 6-(2-Chlorobenzyl)-8-isopentylthieno[3,2-e][1,2,4]triazolo[1,5-c]pyrimidin-5(6H)-one], the EC50 lay within 1000 to 10000 nM. Turning to `CC(C)CCc1cc2c(s1)n(Cc1cccc(Cl)c1)c(=O)n1ncnc21` [Example 20, 6-(3-Chlorobenzyl)-8-isopentylthieno[3,2-e][1,2,4]triazolo[1,5-c]pyrimidin-5(6H)-one], the EC50 lay within 1000 to 10000 nM.

Turning to `CC(C)CCc1cc2c(s1)n(Cc1ccc(-c3ccccc3)cc1)c(=O)n1ncnc21` [Example 21, 6-([1,1′-Biphenyl]-4-ylmethyl)-8-isopentylthieno[3,2-e][1,2,4]triazolo[1,5-c]pyrimidin-5(6H)-one], the “PDE1b (pEC50)” value is recorded as less than 5.

Molecule `O=c1n(Cc2ccc(Cl)cc2)c2sc(Cc3ccccc3)cc2c2ncnn12` [Example 22, 8-Benzyl-6-(4-chlorobenzyl)thieno[3,2-e][1,2,4]triazolo[1,5-c]pyrimidin-5(6H)-one] had an EC50 of 100 to 1000 nM. The same measure, in the same setting: then `CC(C)CCc1cc2c(s1)n(Cc1ccc(Cl)cc1)c(=O)n1ncnc21` [Example 23, 6-(4-Chlorobenzyl)-8-isopentylthieno[3,2-e][1,2,4]triazolo[1,5-c]pyrimidin-5(6H)-one], with 100 to 1000 nM; and `O=c1n(Cc2ccccc2)c2sccc2c2ncnn12` [Example 24, 6-Benzylthieno[3,2-e][1,2,4]triazolo[1,5-c]pyrimidin-5(6H)-one], with 1000 to 10000 nM; and `CC(C)CCc1cc2c(s1)n(Cc1ccccc1)c(=O)n1ncnc21` [Example 25, 6-Benzyl-8-isopentylthieno[3,2-e][1,2,4]triazolo[1,5-c]pyrimidin-5(6H)-one], with 100 to 1000 nM.

Molecule `Cc1sc2c(c1C)c1ncnn1c(=O)n2Cc1ccc(Cl)cc1` [Example 26, 6-(4-Chlorobenzyl)-8,9-dimethylthieno[3,2-e][1,2,4]triazolo[1,5-c]pyrimidin-5(6H)-one] registered a concentration for a half-maximal effect (EC50) of 100 to 1000 nM. For `COc1ccc(Cn2c(=O)n3ncnc3c3ccsc32)cc1` [Example 27, 6-(4-Methoxybenzyl)thieno[3,2-e][1,2,4]triazolo[1,5-c]pyrimidin-5(6H)-one], the EC50 fell in the range of 100 to 1000 nM. `COc1ccc(Cn2c(=O)n3ncnc3c3c(C)csc32)cc1` [Example 28, 6-(4-Methoxybenzyl)-9-methylthieno[3,2-e][1,2,4]triazolo[1,5-c]pyrimidin-5(6H)-one] showed a 50% effective concentration (EC50) of 100 to 1000 nM. `COc1ccc(Cn2c(=O)n3ncnc3c3cc(CN4CCCOCC4)sc32)cc1` [Example 29, 8-((1,4-Oxazepan-4-yl)methyl)-6-(4-methoxybenzyl)thieno[3,2-e][1,2,4]triazolo[1,5-c]pyrimidin-5(6H)-one]: the “PDE1b (pEC50)” value is on record as more than 7. Molecule `COc1ccc(Cn2c(=O)n3ncnc3c3cc(CN(C)C)sc32)cc1` [Example 30, 8-((Dimethylamino)methyl)-6-(4-methoxybenzyl)thieno[3,2-e][1,2,4]triazolo[1,5-c]pyrimidin-5(6H)-one] had a concentration giving a half-maximal response (EC50) of 100 to 1000 nM.

On to `COc1ccc(Cn2c(=O)n3ncnc3c3cc(CN4CCOCC4)sc32)cc1` [Example 31, 6-(4-Methoxybenzyl)-8-(morpholinomethyl)thieno[3,2-e][1,2,4]triazolo[1,5-c]pyrimidin-5(6H)-one], for which the “PDE1b (pEC50)” value is given as more than 7.

The molecule `COc1ccc(Cn2c(=O)n3ncnc3c3cc(CN4CCN(C)CC4)sc32)cc1` [Example 32, 6-(4-Methoxybenzyl)-8-((4-methylpiperazin-1-yl)methyl)thieno[3,2-e][1,2,4]triazolo[1,5-c]pyrimidin-5(6H)-one] registered an EC50 of 100 to 1000 nM. Turning to `COc1ccc(Cn2c(=O)n3ncnc3c3cc(CN4C[C@@H](C)O[C@@H](C)C4)sc32)cc1` [Example 33, 8-(((2S,6R)-2,6-Dimethylmorpholino)methyl)-6-(4-methoxybenzyl)thieno[3,2-e][1,2,4]triazolo[1,5-c]pyrimidin-5(6H)-one], the “PDE1b (pEC50)” value is given as more than 7. `CCN1CCN(Cc2cc3c(s2)n(Cc2ccc(OC)cc2)c(=O)n2ncnc32)CC1=O` [Example 34, 8-((4-Ethyl-3-oxopiperazin-1-yl)methyl)-6-(4-methoxybenzyl)thieno[3,2-e][1,2,4]triazolo[1,5-c]pyrimidin-5(6H)-one]: the “PDE1b (pEC50)” value is more than 7. In the case of `COc1ccc(Cn2c(=O)n3ncnc3c3cc(CN4CCN(S(C)(=O)=O)CC4)sc32)cc1` [Example 35, 6-(4-Methoxybenzyl)-8-((4-(methylsulfonyl)piperazin-1-yl)methyl)thieno[3,2-e][1,2,4]triazolo[1,5-c]pyrimidin-5(6H)-one], the “PDE1b (pEC50)” value is more than 7. For the molecule `COc1ccc(Cn2c(=O)n3ncnc3c3cc(CN4CCOC(C)(C)C4)sc32)cc1` [Example 36], the “PDE1b (pEC50)” value is reported as more than 7. For the molecule `COc1ccc(Cn2c(=O)n3ncnc3c3cc(CN4CC5CC4CO5)sc32)cc1` (stereo not drawn) [Example 37, 8-(2-Oxa-5-azabicyclo[2.2.1]heptan-5-ylmethyl)-6-(4-methoxybenzyl)thieno[3,2-e][1,2,4]triazolo[1,5-c]pyrimidin-5(6H)-one], the “PDE1b (pEC50)” value is more than 7. As for `COc1ccc(Cn2c(=O)n3ncnc3c3cc(CN4CC5(CCOCC5)C4)sc32)cc1` [Example 38, 8-(7-Oxa-2-azaspiro[3.5]nonan-2-ylmethyl)-6-(4-methoxybenzyl)thieno[3,2-e][1,2,4]triazolo[1,5-c]pyrimidin-5(6H)-one], the “PDE1b (pEC50)” value is more than 7. For the molecule `COc1ccc(Cn2c(=O)n3ncnc3c3cc(CN4CCC5(CC4)COC5)sc32)cc1` [Example 39, 8-(2-Oxa-7-azaspiro[3.5]nonan-7-ylmethyl)-6-(4-methoxybenzyl)thieno[3,2-e][1,2,4]triazolo[1,5-c]pyrimidin-5(6H)-one], the “PDE1b (pEC50)” value is given as more than 7.
